Results: patent publication US20180162862A1 (President and Fellows of Harvard College, priority 2015, published 2018)
≈ marks a conversion by molar mass, not a printed value. Where two headings read alike, the source gives them in different places.

How the values were obtained:
Assay type in all cases: cell-based
S. aureus Newman = test: MIC test according to CLSI M7-A9, S. aureus Newman; settings: Staphylococcus aureus, CLSI M7-A9, CAMHB, 24 h (Table 3), read-out: S. aureus ATCC Newman MIC
Method: (§1) MIC Test (S. aureus ATCC 29213, S. aureus ATCC 43300 and S. aureus Newman)
(§2) Susceptibility testing of S. aureus ATCC 29213, ATCC 43300 and Newman was performed according to Clinical Laboratory Standard Institute (CLSI) guidelines M7-A9. Test articles were stored at room temperature prior to use, then dissolved in filtered sterile DMSO. Stock DMSO solutions were diluted further in cation-adjusted Mueller Hinton broth (CAMHB) to provide appropriate test concentrations. Cultures of S. aureus (ATCC 29213, ATCC 43300 or Newman) were added in accordance with CLSI guidelines and plates incubated at 37° C. in air for 24 h. Endpoints were determined visually (and by spectrophotometer at 600 nm) and the minimum inhibitory concentration (MIC) defined as the lowest concentration of test articles resulting in complete inhibition of visible bacterial growth. Results are detailed in Table 2 (S. aureus ATCC 29213 and ATCC 43300) and Table 3 (S. aureus ATCC 29213, ATCC 43300 and Newman).

S. aureus ATCC 29213 = test: MIC test according to CLSI M7-A9, S. aureus ATCC 29213; settings: Staphylococcus aureus, ATCC29213, CLSI M7-A9, CAMHB
Method: as §1, §2

S. aureus ATCC 43300 = test: MIC test according to CLSI M7-A9, S. aureus ATCC 43300; settings: Staphylococcus aureus, ATCC43300; CLSI M7-A9, CAMHB, 24 h (Table 2); read-out: S. aureus ATCC 43300 MIC at 24 h
Method: as §1, §2

[1] = 24 h (Table 3), read-out: S. aureus ATCC 29213 MIC
[2] = 24 h (Table 2), read-out: S. aureus ATCC 29213 MIC at 24 h

Row | SMILES | MIC (S. aureus Newman) [µg/mL] | MIC (S. aureus ATCC 29213; [1]) [µg/mL] | MIC (S. aureus ATCC 43300) [µg/mL] | MIC (S. aureus ATCC 29213; [2]) [µg/mL]
1 | CC(C)(C)c1ccc(-c2nc(NCCCN3CCc4ccccc4C3)n3[nH]c(=O)cc3n2)cc1 [Example 91, 2-(4-tert-butylphenyl)-4-{[3-(1,2,3,4-tetrahydroisoquinolin-2-yl)propyl]amino}-6H,7H-pyrazolo[1,5-a][1,3,5]triazin-7-one] | 16 (≈ 35 µM) | 32 (≈ 70.1 µM) | – | –
2 | CC(C)(C)c1ccc(-c2nc(NCCCc3ccccc3)n3[nH]c(=O)c(Cc4c[nH]cn4)c3n2)cc1 [Example 111, 2-(4-tert-butylphenyl)-8-(1H-imidazol-4-ylmethyl)-4-[(3-phenylpropyl)amino]-6H,7H-pyrazolo[1,5-a][1,3,5]triazin-7-one] | 2 (≈ 4.15 µM) | 4 (≈ 8.31 µM) | – | –
3 | CC(C)(C)c1ccc(-c2nc(NCCCNC3Cc4ccccc4C3)n3[nH]c(=O)c(Cc4c[nH]cn4)c3n2)cc1 [Example 109, 2-(4-tert-butylphenyl)-4-({3-[(2,3-dihydro-1H-inden-2-yl)amino]propyl}amino)-8-(1H-imidazol-4-ylmethyl)-6H,7H-pyrazolo[1,5-a][1,3,5]triazin-7-one] | 1 (≈ 1.86 µM) | 4 (≈ 7.45 µM) | – | –
4 | CC(C)(C)c1ccc(-c2nc(NCCCNC3Cc4ccccc4C3)n3[nH]c(=O)c(Cc4ccccc4)c3n2)cc1 [Example 108, 8-benzyl-2-(4-tert-butylphenyl)-4-({3-[(2,3-dihydro-1H-inden-2-yl)amino]propyl}amino)-6H,7H-pyrazolo[1,5-a][1,3,5]triazin-7-one] | 2 (≈ 3.66 µM) | 0.5 (≈ 0.915 µM) | – | –
5 | CCCCNc1nc(C(C)(C)C)nc2cc(=O)[nH]n12 [Example 96, 2-tert-butyl-4-(butylamino)-6H,7H-pyrazolo[1,5-a][1,3,5]triazin-7-one] | 32 (≈ 122 µM) | 128 (≈ 486 µM) | – | –
6 | CN(C)CCCNc1nc(-c2ccc(C(C)(C)C)cc2)nc2c(CC34CC5CC(CC(C5)C3)C4)c(=O)[nH]n12 [Example 120, 8-(adamantan-1-ylmethyl)-2-(4-tert-butylphenyl)-4-{[3-(dimethylamino)propyl]amino}-6H,7H-pyrazolo[1,5-a][1,3,5]triazin-7-one] | 1 (≈ 1.94 µM) | 1 (≈ 1.94 µM) | – | –
7 | O=c1cc2nc(C34CC5CC(CC(C5)C3)C4)nc(NCCCN3CCc4ccccc4C3)n2[nH]1 [Example 102, 2-(adamantan-1-yl)-4-{[3-(1,2,3,4-tetrahydroisoquinolin-2-yl)propyl]amino}-6H,7H-pyrazolo[1,5-a][1,3,5]triazin-7-one] | 16 (≈ 34.9 µM) | 64 (≈ 140 µM) | – | –
8 | CC(C)(C)c1ccc(-c2nc(NCCCO)n3[nH]c(=O)c(CC45CC6CC(CC(C6)C4)C5)c3n2)cc1 [Example 119, 8-(adamantan-1-ylmethyl)-2-(4-tert-butylphenyl)-4-[(3-hydroxypropyl)amino]-6H,7H-pyrazolo[1,5-a][1,3,5]triazin-7-one] | 16 (≈ 32.7 µM) | 16 (≈ 32.7 µM) | – | –
9 | CN(C)CCCNc1nc(C23CC4CC(CC(C4)C2)C3)nc2c(Cc3ccccc3)c(=O)[nH]n12 [Example 123, 2-(adamantan-1-yl)-8-benzyl-4-{[3-(dimethylamino)propyl]amino}-6H,7H-pyrazolo[1,5-a][1,3,5]triazin-7-one] | 4 (≈ 8.68 µM) | 4 (≈ 8.68 µM) | – | –
10 | CC(C)(C)c1ccc(-c2nc(NCCCN3CCCc4ccccc43)n3[nH]c(=O)cc3n2)cc1 [Example 76, 2-(4-tert-butylphenyl)-4-{[3-(1,2,3,4-tetrahydroquinolin-1-yl)propyl]amino}-6H,7H-pyrazolo[1,5-a][1,3,5]triazin-7-one] | 4 (≈ 8.76 µM) | 4 (≈ 8.76 µM) | – | –
11 | O=c1[nH]n2c(NCCCO)nc(C34CC5CC(CC(C5)C3)C4)nc2c1Cc1ccccc1 [Example 122, 2-(adamantan-1-yl)-8-benzyl-4-[(3-hydroxypropyl)amino]-6H,7H-pyrazolo[1,5-a][1,3,5]triazin-7-one] | 8 (≈ 18.5 µM) | 8 (≈ 18.5 µM) | – | –
12 | Cc1ccc(Cc2c(=O)[nH]n3c(NCCCN4CCc5ccccc5C4)nc(-c4ccc(C(C)(C)C)cc4)nc23)cn1 [Example 115, 2-(4-tert-butylphenyl)-8-[(6-methylpyridin-3-yl)methyl]-4-[3-(1,2,3,4-tetrahydroisoquinolin-2-yl)propyl]amino-6H,7H-pyrazolo[1,5-a][1,3,5]triazin-7-one] | 8 (≈ 14.2 µM) | 32 (≈ 57 µM) | – | –
13 | CC(C)(C)c1ccc(-c2nc3c(CC45CC6CC(CC(C6)C4)C5)c(=O)[nH]n3c(=S)[nH]2)cc1 [Example 118, 8-(adamantan-1-ylmethyl)-2-(4-tert-butylphenyl)-4-sulfanylidene-3H,4H,6H,7H-pyrazolo[1,5-a][1,3,5]triazin-7-one] | 0.5 (≈ 1.11 µM) | 8 (≈ 17.8 µM) | – | –
14 | CC(C)(C)c1ccc(-c2nc(NCC(=O)NC3Cc4ccccc4C3)n3[nH]c(=O)cc3n2)cc1 [Example 88, 2-{[2-(4-tert-butylphenyl)-7-oxo-6H,7H-pyrazolo[1,5-a][1,3,5]triazin-4-yl]amino}-N-(2,3-dihydro-1H-inden-2-yl)acetamide] | 128 (≈ 280 µM) | > 128 | – | –
15 | CC(C)(C)c1ccc(-c2nc(NCC3CN(Cc4ccccc4)CCO3)n3[nH]c(=O)cc3n2)cc1 (stereo not shown) [Example 79, 4-{[(4-benzylmorpholin-2-yl)methyl]amino}-2-(4-tert-butylphenyl)-6H,7H-pyrazolo[1,5-a][1,3,5]triazin-7-one] | 16 (≈ 33.9 µM) | 32 (≈ 67.7 µM) | – | –
16 | CN(CCCNc1nc(-c2ccc(C(C)(C)C)cc2)nc2cc(=O)[nH]n12)Cc1ccccc1 [Example 98, 4-({3-[benzyl(methyl)amino]propyl}amino)-2-(4-tert-butylphenyl)-6H,7H-pyrazolo[1,5-a][1,3,5]triazin-7-one] | 32 (≈ 72 µM) | 32 (≈ 72 µM) | – | –
17 | Cc1ccc(Cc2c(=O)[nH]n3c(NCCCO)nc(-c4ccc(C(C)(C)C)cc4)nc23)cn1 [Example 113, 2-(4-tert-butylphenyl)-4-[(3-hydroxypropyl)amino]-8-[(6-methylpyridin-3-yl)methyl]-6H,7H-pyrazolo[1,5-a][1,3,5]triazin-7-one] | 32 (≈ 71.7 µM) | 32 (≈ 71.7 µM) | – | –
18 | O=c1[nH]n2c(NCCCNC3Cc4ccccc4C3)nc(C34CC5CC(CC(C5)C3)C4)nc2c1Cc1ccccc1 [Example 125, 2-(adamantan-1-yl)-8-benzyl-4-({3-[(2,3-dihydro-1H-inden-2-yl)amino]propyl}amino)-6H,7H-pyrazolo[1,5-a][1,3,5]triazin-7-one] | 1 (≈ 1.82 µM) | 2 (≈ 3.64 µM) | – | –
19 | CC(C)(C)c1ccc(-c2nc(NCC(F)(F)CNC3Cc4ccccc4C3)n3[nH]c(=O)cc3n2)cc1 [Example 89, 2-(4-tert-Butylphenyl)-4-({3-[(2,3-dihydro-1H-inden-2-yl)amino]-2,2-difluoropropyl}amino)-6H,7H-pyrazolo[1,5-a][1,3,5]triazin-7-one] | 8 (≈ 16.2 µM) | 8 (≈ 16.2 µM) | – | –
20 | CC(C)(C)c1ccc(-c2nc(NC3CCN(Cc4ccccc4)CC3)n3[nH]c(=O)cc3n2)cc1 [Example 35, 4-[(1-benzylpiperidin-4-yl)amino]-2-(4-tert-butylphenyl)-6H,7H-pyrazolo[1,5-a][1,3,5]triazin-7-one] | – | – | 8 (≈ 17.5 µM) | 8 (≈ 17.5 µM)
21 | CC(C)(C)c1ccc(-c2nc(NCCCc3ccccc3)n3[nH]c(=O)cc3n2)cc1 [Example 23, 2-(4-tert-butylphenyl)-4-[(3-phenylpropyl)amino]-6H,7H-pyrazolo[1,5-a][1,3,5]triazin-7-one] | – | – | 4 (≈ 9.96 µM) | 4 (≈ 9.96 µM)
22 | Cc1ccc(-c2nc(NC3CCN(Cc4ccccc4)CC3)n3[nH]c(=O)cc3n2)cc1 [Example 69, 4-[(1-benzylpiperidin-4-yl)amino]-2-(4-methylphenyl)-6H,7H-pyrazolo[1,5-a][1,3,5]triazin-7-one] | – | – | > 32 | 32 (≈ 77.2 µM)
23 | CC(C)(C)c1ccc(-c2nc(NC3CCC(NCc4ccccc4)CC3)n3[nH]c(=O)cc3n2)cc1 (stereo not shown) [Example 56, 4-{[4-(benzylamino)cyclohexyl]amino}-2-(4-tert-butylphenyl)-6H,7H-pyrazolo[1,5-a][1,3,5]triazin-7-one] | – | – | 8 (≈ 17 µM) | 16 (≈ 34 µM)
24 | CC(C)(C)c1ccc(-c2nc(NCCCO)n3[nH]c(=O)cc3n2)cc1 [Example 22, 2-(4-tert-butylphenyl)-4-[(3-hydroxypropyl)amino]-6H,7H-pyrazolo[1,5-a][1,3,5]triazin-7-one] | – | – | 32 (≈ 93.7 µM) | 8 (≈ 23.4 µM)
25 | Cc1cc(NC2CCN(c3nc(-c4ccc(C(C)(C)C)cc4)nc4cc(=O)[nH]n34)CC2)ccc1Cl [Example 54, 2-(4-tert-butylphenyl)-4-{4-[(4-chloro-3-methylphenyl)amino]piperidin-1-yl}-6H,7H-pyrazolo[1,5-a][1,3,5]triazin-7-one] | – | – | 4 (≈ 8.15 µM) | 4 (≈ 8.15 µM)
26 | Cc1cc(N2CCC(Nc3nc(-c4ccc(C(C)(C)C)cc4)nc4cc(=O)[nH]n34)CC2)ccc1Cl [Example 62, 2-(4-tert-butylphenyl)-4-{[1-(4-chloro-3-methylphenyl)piperidin-4-yl]amino}-6H,7H-pyrazolo[1,5-a][1,3,5]triazin-7-one] | – | – | 16 (≈ 32.6 µM) | 4 (≈ 8.15 µM)
